Laboratory results as given in patent publication EP0411183A1, “Ascorbic acid derivative” (NIPPON HYPOX LABORATORIES INCORPORATED, priority 1989, dated 1991).

Key:
[1] = Antioxidant action examined by using stable radicals (DPPH reduction activity, M.S. Blois method); format: biochemical; settings: 0.1 mM DPPH solution in ethanol, absorbance at 517 nm after 20 minutes; read-out: 50% radical eliminating concentration
Method: Test example 1 (Antioxidant action examined by using stable radicals)
Reduction activity of α,-α-diphenyl-β-picrylhydrazyl (DPPH) which was a stable free radical was examined according to the M.S. Blois method (Nature, vol. 181, page. 1199, 1958) and used as an index to antioxidant action. Thus, specimens were added to 3 mℓ of a 0.1 mM DPPH solution in ethanol, and absorbance at a wavelength of 517 nm was measured using a spectrophotometer after 20 minutes. The difference in absorbance from the solvent control [0.5% or less of dimethylformamide (DMF)] was taken as the reduction activity.

[2] = system: superoxide anion radicals; test: Effects on formazan formation in the xanthine-xanthine oxidase-Nitrotetrazolium Blue system; format: biochemical; settings: for Inhibition ratio (%) of formazan formation: phosphate buffer pH 7.8, 30°C, 10 minutes; for formazan formation (result in words): summary of Table-3
Method: Specimens were added to a 0.05 M phosphate buffer solution (pH 7.8) containing xanthine, EDTA 2Na and Nitrotetrazolium Blue (NTB) so as to provide the respective final concentrations of 5x10⁻⁵ M, 1x10⁻⁴ M and 5x10⁻⁴ M and warmed at 30°C for 3 minutes. Xanthine oxidase (manufactured by Sigma Corp.) was added, and the resulting specimens were warmed at 30°C for 10 minutes to colorimetrically determine formazan formed by superoxide anion radicals. The inhibition ratio of formazan formation was determined from the results at concentrations of 0.5 mM and 4 mM of each specimen.

IC50 [1] | Compound | Inhibition ratio (%) of formazan formation ([2]; Concentration 0.5 mM) | Inhibition ratio (%) of formazan formation ([2]; Concentration 4 mM) | formazan formation (result in words) [2]
23 µM | CC1(C)OCC(C2OC(=O)C(O)=C2OCc2ccccn2)O1 [compound 007, L-5,6-O-isopropylidene-3-O-2′-pyridylmethylascorbic acid] | – | – | –
17 µM | L-5,6-O-isopropylidene-3-O-methylcarbomethylascorbic acid [compound 021] | 9.2% | 47.4% | remarkably inhibited formazan formation

Compound | IC50 [1] | Inhibition ratio (%) of formazan formation ([2]; Concentration 0.5 mM) | Inhibition ratio (%) of formazan formation ([2]; Concentration 4 mM) | formazan formation (result in words) [2]
L-5,6-O-isopropylidene-3-O-(3-butanone) ascorbic acid [compound 022] | 20 µM | 22.6% | 26.7% | remarkably inhibited formazan formation
